28 molecules from patent US20110319411A1, “ISOINDOLINONE AND RELATED ANALOGS AS SIRTUIN MODULATORS” (Sirtis Pharmaceuticals, Inc., priority 2008, published 2011) can be followed below.

The assay has as its target T1, SIRT1 (Homo sapiens, UniProt Q96EB6).
T1 construct: made in house; host or cells: E. coli BL21(DE3)
T1 sequence (Q96EB6 1-747): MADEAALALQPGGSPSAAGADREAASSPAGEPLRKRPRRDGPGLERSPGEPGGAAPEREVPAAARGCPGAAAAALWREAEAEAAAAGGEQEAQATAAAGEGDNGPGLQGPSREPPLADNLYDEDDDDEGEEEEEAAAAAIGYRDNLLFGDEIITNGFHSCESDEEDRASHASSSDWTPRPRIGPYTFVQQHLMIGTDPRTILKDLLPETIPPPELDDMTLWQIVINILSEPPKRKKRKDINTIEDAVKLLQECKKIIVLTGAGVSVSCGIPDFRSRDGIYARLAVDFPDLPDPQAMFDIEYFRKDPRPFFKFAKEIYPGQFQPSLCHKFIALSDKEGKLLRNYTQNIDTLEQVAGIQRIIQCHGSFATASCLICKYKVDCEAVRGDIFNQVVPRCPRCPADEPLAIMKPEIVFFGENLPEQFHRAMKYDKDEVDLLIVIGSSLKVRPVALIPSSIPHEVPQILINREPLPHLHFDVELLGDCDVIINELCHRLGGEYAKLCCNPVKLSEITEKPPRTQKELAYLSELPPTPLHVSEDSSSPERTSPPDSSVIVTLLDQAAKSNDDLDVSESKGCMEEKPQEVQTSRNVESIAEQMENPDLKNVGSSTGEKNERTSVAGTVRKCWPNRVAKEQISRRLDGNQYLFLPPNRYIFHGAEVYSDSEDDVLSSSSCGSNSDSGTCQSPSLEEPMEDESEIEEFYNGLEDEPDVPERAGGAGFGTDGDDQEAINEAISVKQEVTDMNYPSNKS
The assay is described as follows: mass spectrometry based assay to identify modulators of SIRT1 activity. The note with it: 10 nM SIRT1, 0.5 μM peptide substrate, 120 μM βNAD+, 25 minutes at 25° C.; for Emax: 25 min, read-out: % FOLD ACT. (percent maximum fold activation). Format: biochemical. From the text:
A mass spectrometry based assay was used to identify modulators of SIRT1 activity. The mass spectrometry based assay utilizes a peptide having 20 amino acid residues as follows: Ac-EE-K(biotin)-GQSTSSHSK(Ac)NleSTEG-K(5TMR)-EE-NH2 (SEQ ID NO: 1) wherein K(Ac) is an acetylated lysine residue and Nle is a norleucine. The peptide is labeled with the fluorophore 5TMR (excitation 540 nm/emission 580 nm) at the C-terminus. The sequence of the peptide substrate is based on p53 with several modifications. In addition, the methionine residue naturally present in the sequence was replaced with the norleucine because the methionine may be susceptible to oxidation during synthesis and purification.
The mass spectrometry assay is conducted as follows: 0.5 μM peptide substrate and 120 μM βNAD^+ is incubated with 10 nM SIRT1 for 25 minutes at 25° C. in a reaction buffer (50 mM Tris-acetate pH 8, 137 mM NaCl, 2.7 mM KCl, 1 mM MgCl2, 5 mM DTT, 0.05% BSA). Test compounds may be added to the reaction as described above. The SirT1 gene is cloned into a T7-promoter containing vector and transformed into BL21(DE3). After the 25 minute incubation with SIRT1, 10 μL of 10% formic acid is added to stop the reaction. Reactions are sealed and frozen for later mass spec analysis. Determination of the mass of the substrate peptide allows for precise determination of the degree of acetylation (i.e. starting material) as compared to deacetylated peptide (product).
A control for inhibition of sirtuin activity is conducted by adding 1 μL of 500 mM nicotinamide as a negative control at the start of the reaction (e.g., permits determination of maximum sirtuin inhibition). A control for activation of sirtuin activity is conducted using 10 nM of sirtuin protein, with 1 μL of DMSO in place of compound, to determine the amount of deacetylation of the substrate at a given timepoint within the linear range of the assay. This timepoint is the same as that used for test compounds and, within the linear range, the endpoint represents a change in velocity.
For the above assay, SIRT1 protein was expressed and purified as follows. The SirT1 gene was cloned into a T7-promoter containing vector and transformed into BL21(DE3). The protein was expressed by induction with 1 mM IPTG as an N-terminal His-tag fusion protein at 18° C. overnight and harvested at 30,000×g. Cells were lysed with lysozyme in lysis buffer (50 mM Tris-HCl, 2 mM Tris[2-carboxyethyl]phosphine (TCEP), 10 μM ZnCl2, 200 mM NaCl) and further treated with sonication for 10 min for complete lysis. The protein was purified over a Ni-NTA column (Amersham) and fractions containing pure protein were pooled, concentrated and run over a sizing column (Sephadex S200 26/60 global). The peak containing soluble protein was collected and run on an Ion-exchange column (MonoQ). Gradient elution (200 mM-500 mM NaCl) yielded pure protein. This protein was concentrated and dialyzed against dialysis buffer (20 mM Tris-HCl, 2 mM TCEP) overnight. The protein was aliquoted and frozen at −80° C. until further use.
Sirtuin modulating compounds that activated SIRT1 were identified using the assay described above and are shown below in Table 1. The EC1.5 values represent the concentration of test compounds that result in 150% activation of SIRT1. The EC1.5 values for the activating compounds are represented by A (EC1.5<10 μM), B (EC1-5 10-25 μM), C (EC1.5>25 μM). The percent maximum fold activation is represented by A (Fold activation >200%) or B (Fold Activation <200%).

For the molecule `O=C(Nc1cccc2c1C(=O)N(c1cccc(C(F)(F)F)c1)C2)c1cnccn1` [Compound 100, N-(3-oxo-2-(3-(trifluoromethyl)phenyl)isoindolin-4-yl)pyrazine-2-carboxamide], the “EC1.5 (concentration of test compound that results in 150% activation of SIRT1)” value is “A (EC1.5<10 μM)” and the Emax was less than 200%.

`O=C(Cc1cccnc1)Nc1cccc2c1C(=O)N(c1cccc(C(F)(F)F)c1)C2` [Compound 101]: the “EC1.5 (concentration of test compound that results in 150% activation of SIRT1)” value is “C (EC1.5>25 μM)” and the Emax was less than 200%.

`O=C(Cc1cccnc1)Nc1cccc2c1C(=O)N(c1cccc(OC3CCNCC3)c1)C2` [Compound 102, N-(3-oxo-2-(3-(piperidin-4-yloxy)phenyl)isoindolin-4-yl)-2-(pyridin-3-yl)acetamide]: the “EC1.5 (concentration of test compound that results in 150% activation of SIRT1)” value is listed as “C (EC1.5>25 μM)” and the Emax is less than 200%.

For the molecule `O=C(Cc1cccnc1)Nc1cccc2c1C(=O)N(c1cccc(O[C@@H]3CCNC3)c1)C2` [Compound 103], the “EC1.5 (concentration of test compound that results in 150% activation of SIRT1)” value is on record as “B (EC1-5 10-25 μM)” and the Emax is less than 200%.

Regarding `O=C(Cc1cccnc1)Nc1cccc2c1C(=O)N(c1cccc(-c3ccncc3)c1)C2` [Compound 104], the “EC1.5 (concentration of test compound that results in 150% activation of SIRT1)” value is on record as “C (EC1.5>25 μM)” and the Emax is less than 200%.

Consider `CC1(C(=O)Nc2cccc3c2C(=O)N(c2cccc(C(F)(F)F)c2)C3)CCCCC1` [Compound 105], for which the “EC1.5 (concentration of test compound that results in 150% activation of SIRT1)” value is reported as “C (EC1.5>25 μM)” and the Emax was less than 200%.

Consider `CC(C)(C(=O)Nc1cccc2c1C(=O)N(c1cccc(C(F)(F)F)c1)C2)c1ccccc1` [Compound 106], for which the “EC1.5 (concentration of test compound that results in 150% activation of SIRT1)” value is listed as “C (EC1.5>25 μM)” and the Emax was less than 200%.

On to `O=C(Cc1cccnc1)Nc1cccc2c1C(=O)N(c1cccc(OC(F)(F)F)c1)C2` [Compound 107], for which the “EC1.5 (concentration of test compound that results in 150% activation of SIRT1)” value was “C (EC1.5>25 μM)” and the Emax was less than 200%.

On to `O=C(Nc1cccc2c1C(=O)N(c1cccc(OC(F)(F)F)c1)C2)C1CCCC1` [Compound 108], for which the “EC1.5 (concentration of test compound that results in 150% activation of SIRT1)” value is “C (EC1.5>25 μM)” and the Emax is less than 200%.

In the case of `O=C(Cc1ccccc1F)Nc1cccc2c1C(=O)N(c1cccc(C(F)(F)F)c1)C2` [Compound 109], the “EC1.5 (concentration of test compound that results in 150% activation of SIRT1)” value is “C (EC1.5>25 μM)” and the Emax is less than 200%.

For `O=C(Cc1cccc(F)c1)Nc1cccc2c1C(=O)N(c1cccc(C(F)(F)F)c1)C2` [Compound 110], the “EC1.5 (concentration of test compound that results in 150% activation of SIRT1)” value is on record as “C (EC1.5>25 μM)” and the Emax was less than 200%.

`O=C(Nc1cccc2c1C(=O)N(c1cccc(C(F)(F)F)c1)C2)C1CCOCC1` [Compound 111]: the “EC1.5 (concentration of test compound that results in 150% activation of SIRT1)” value is listed as “A (EC1.5<10 μM)” and the Emax is less than 200%.

As for `O=C(CC1CCCC1)Nc1cccc2c1C(=O)N(c1cccc(C(F)(F)F)c1)C2` [Compound 112], the “EC1.5 (concentration of test compound that results in 150% activation of SIRT1)” value was “C (EC1.5>25 μM)” and the Emax was less than 200%.

On to `O=C(Cc1ccc(F)cc1)Nc1cccc2c1C(=O)N(c1cccc(C(F)(F)F)c1)C2` [Compound 113], for which the “EC1.5 (concentration of test compound that results in 150% activation of SIRT1)” value is recorded as “C (EC1.5>25 μM)” and the Emax was less than 200%.

As to `Cc1ccccc1N1Cc2cccc(NC(=O)Cc3cccnc3)c2C1=O` [Compound 114], the “EC1.5 (concentration of test compound that results in 150% activation of SIRT1)” value is given as “C (EC1.5>25 μM)” and the Emax is less than 200%.

For the molecule `Cc1cccc(N2Cc3cccc(NC(=O)Cc4cccnc4)c3C2=O)c1` [Compound 115], the “EC1.5 (concentration of test compound that results in 150% activation of SIRT1)” value is recorded as “C (EC1.5>25 μM)” and the Emax was less than 200%.

On to `COc1cccc(N2Cc3cccc(NC(=O)Cc4cccnc4)c3C2=O)c1` [Compound 116], for which the “EC1.5 (concentration of test compound that results in 150% activation of SIRT1)” value is “C (EC1.5>25 μM)” and the Emax was less than 200%.

For the molecule `Cc1ccc(N2Cc3cccc(NC(=O)Cc4cccnc4)c3C2=O)cc1` [Compound 117], the “EC1.5 (concentration of test compound that results in 150% activation of SIRT1)” value is recorded as “C (EC1.5>25 μM)” and the Emax is less than 200%.

Take `COc1ccc(N2Cc3cccc(NC(=O)Cc4cccnc4)c3C2=O)cc1` [Compound 118]: the “EC1.5 (concentration of test compound that results in 150% activation of SIRT1)” value is listed as “C (EC1.5>25 μM)” and the Emax is less than 200%.

On to `COc1ccccc1N1Cc2cccc(NC(=O)Cc3cccnc3)c2C1=O` [Compound 119], for which the “EC1.5 (concentration of test compound that results in 150% activation of SIRT1)” value is listed as “C (EC1.5>25 μM)” and the Emax is less than 200%.

As for `O=C(Nc1cccc2c1C(=O)N(c1cccc(C(F)(F)F)c1)C2)c1ccccn1` [Compound 120], the “EC1.5 (concentration of test compound that results in 150% activation of SIRT1)” value is given as “C (EC1.5>25 μM)” and the Emax was less than 200%.

As to `O=C(Nc1cccc2c1C(=O)N(c1cccc(C(F)(F)F)c1)C2)c1cccnc1` [Compound 121], the “EC1.5 (concentration of test compound that results in 150% activation of SIRT1)” value is on record as “C (EC1.5>25 μM)” and the Emax was less than 200%.

In the case of `O=C(Nc1cccc2c1C(=O)N(c1cccc(C(F)(F)F)c1)C2)c1ncccn1` [Compound 122], the “EC1.5 (concentration of test compound that results in 150% activation of SIRT1)” value is “A (EC1.5<10 μM)” and the Emax was less than 200%.

As for `O=C(Nc1cccc2c1C(=O)N(c1cccc(C(F)(F)F)c1)C2)c1ccncc1` [Compound 123], the “EC1.5 (concentration of test compound that results in 150% activation of SIRT1)” value is “B (EC1-5 10-25 μM)” and the Emax is less than 200%.

On to `O=C(Nc1cccc2c1C(=O)N(c1cccc(C(F)(F)F)c1)C2)c1cscn1` [Compound 124], for which the “EC1.5 (concentration of test compound that results in 150% activation of SIRT1)” value was “C (EC1.5>25 μM)” and the Emax is less than 200%.

`O=C(Nc1cccc2c1C(=O)N(c1cccc(C(F)(F)F)c1)C2)c1ccc(CN2CCCC2)cc1` [Compound 125]: the “EC1.5 (concentration of test compound that results in 150% activation of SIRT1)” value is “A (EC1.5<10 μM)” and the Emax was less than 200%.

As to `O=C(Nc1cccc2c1C(=O)N(c1cccc(C(F)(F)F)c1)C2)c1cncnc1` [Compound 126], the “EC1.5 (concentration of test compound that results in 150% activation of SIRT1)” value is on record as “C (EC1.5>25 μM)” and the Emax was less than 200%.

With `O=C(Nc1cccc2c1C(=O)N(c1cccc(C(F)(F)F)c1)C2)c1ccncn1` [Compound 127], the “EC1.5 (concentration of test compound that results in 150% activation of SIRT1)” value was “C (EC1.5>25 μM)” and the Emax is less than 200%.
